According to US10556926B2, “Synthetic artificial peptides with antimicrobial effect” (priority 2014, dated 2020):

How the values were obtained:
Staphylococcus xylosus = assay: Mixed culture experiment (bacterially contaminated cell culture), bacteria; type: cell-based; settings: 25 and 50 μM peptide, two hours, with U937
Method: (§1) Destruction of the bacteria membranes by the antimicrobial peptides was investigated in a flow cytometric method with the help of a living/dead staining method in combination with an internal calibration and counting system. For this purpose, SYBR Green I (Sigma-Aldrich) was used as total staining and propidium iodide (Sigma-Aldrich) was used as contrast staining for membrane-damaged bacteria. […] The flow analysis was carried out on a Cytomics FC500 Instrument (Beckmann Coulter, Munich, Germany) equipped with an argon laser (488 nm) and the corresponding emission filters for SYBR Green I (525 nm) and propidium iodide (620 nm). […] Then, the mixture was incubated for 10 min in the dark at room temperature and then measured by flow cytometry. The number of events in each gate was captured and evaluated using the CXP Analyses 2.2 Software. The total number of living and dead bacteria was calculated. […]
(§2) The ability of the antimicrobial peptides to be used as a therapeutic active ingredient was investigated by reference to its selective antimicrobial properties in model mixed culture experiments. […] Then, the mixed cell cultures were stained and measured by flow cytometry as described in example 3, the measurement scale being adapted to the measurement of the larger eukaryotic cells.

human cell line U937 = assay: Mixed culture experiment (bacterially contaminated cell culture), eukaryotic cells; type: cell-based; settings: 25 and 50 μM peptide, two hours, with S. xylosus
Method: as §1, §2

With `CC[C@H](C)[C@H](NC(=O)CN)C(=O)NCC(=O)N[C@@H](C)C(=O)N[C@H](C(=O)N[C@@H](CC(C)C)C(=O)N[C@@H](CCCCN)C(=O)N[C@H](C(=O)N[C@@H](CC(C)C)C(=O)N[C@H](C(=O)N[C@H](C(=O)NCC(=O)N[C@@H](CC(C)C)C(=O)N1CCC[C@H]1C(=O)N[C@@H](C)C(=O)N[C@@H](CC(C)C)C(=O)N[C@H](C(=O)N[C@@H](CO)C(=O)N[C@@H](Cc1c[nH]c2ccccc12)C(=O)N[C@H](C(=O)N[C@@H](CCCCN)C(=O)N[C@@H](CCCNC(=N)N)C(=O)N[C@@H](CCCCN)C(=O)N[C@@H](CCCNC(=N)N)C(=O)N[C@@H](CCC(N)=O)C(=O)N[C@@H](CCC(N)=O)C(N)=O)[C@@H](C)CC)[C@@H](C)CC)[C@@H](C)O)[C@@H](C)O)C(C)C)C(C)C` [Melittin] the “Killing of S. xylosus cells in mixed culture” value (Staphylococcus xylosus) was “comprehensive killing of bacteria cells” and the “Effect on eukaryotic U937 cells in mixed culture” value (human cell line U937) was “destroys all of the eukaryotic U937 cells”.
